Experiment [1] addresses T1, human ACCS2 (ACSS2, acetyl CoA synthetase) (Homo sapiens, UniProt Q9NR19). The experiment is described as follows: biochemical.
Experiment [2] deals with T2, S. cerevisiae Acs1 (acetyl CoA synthetase) (Saccharomyces cerevisiae, UniProt Q01574).
T2 sequence (Q01574 1-713): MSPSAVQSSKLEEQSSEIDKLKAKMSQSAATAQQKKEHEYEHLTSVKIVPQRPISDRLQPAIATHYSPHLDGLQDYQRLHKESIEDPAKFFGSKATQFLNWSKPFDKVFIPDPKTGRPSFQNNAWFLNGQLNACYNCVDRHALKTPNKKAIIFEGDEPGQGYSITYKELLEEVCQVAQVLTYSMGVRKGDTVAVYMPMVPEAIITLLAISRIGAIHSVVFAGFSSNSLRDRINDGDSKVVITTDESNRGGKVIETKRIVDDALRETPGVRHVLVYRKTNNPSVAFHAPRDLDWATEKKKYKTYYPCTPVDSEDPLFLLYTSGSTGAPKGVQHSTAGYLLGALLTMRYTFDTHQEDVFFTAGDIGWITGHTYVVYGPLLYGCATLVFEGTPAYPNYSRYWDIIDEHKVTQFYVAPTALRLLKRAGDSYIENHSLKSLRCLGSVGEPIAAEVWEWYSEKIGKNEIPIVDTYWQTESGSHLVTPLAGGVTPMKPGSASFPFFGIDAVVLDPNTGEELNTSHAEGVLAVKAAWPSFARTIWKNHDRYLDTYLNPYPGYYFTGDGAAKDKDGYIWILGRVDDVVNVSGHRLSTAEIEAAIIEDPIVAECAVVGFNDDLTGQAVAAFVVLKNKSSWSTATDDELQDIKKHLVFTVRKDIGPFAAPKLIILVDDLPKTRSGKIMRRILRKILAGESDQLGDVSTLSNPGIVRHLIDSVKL
Kind of experiment: hydroxylamine-coupled. The class given is biochemical.

In experiment [3] the target is T1, human ACCS2 (ACSS2, acetyl CoA synthetase).
The target of experiment [4] is T2, S. cerevisiae Acs1 (acetyl CoA synthetase). Kind of experiment: Km determination in hydroxamic acid enzyme assay. In kind it is biochemical.

A value given as a limit tells only on which side of the number the result lay.

T1 sequence (Q9NR19 whole entry): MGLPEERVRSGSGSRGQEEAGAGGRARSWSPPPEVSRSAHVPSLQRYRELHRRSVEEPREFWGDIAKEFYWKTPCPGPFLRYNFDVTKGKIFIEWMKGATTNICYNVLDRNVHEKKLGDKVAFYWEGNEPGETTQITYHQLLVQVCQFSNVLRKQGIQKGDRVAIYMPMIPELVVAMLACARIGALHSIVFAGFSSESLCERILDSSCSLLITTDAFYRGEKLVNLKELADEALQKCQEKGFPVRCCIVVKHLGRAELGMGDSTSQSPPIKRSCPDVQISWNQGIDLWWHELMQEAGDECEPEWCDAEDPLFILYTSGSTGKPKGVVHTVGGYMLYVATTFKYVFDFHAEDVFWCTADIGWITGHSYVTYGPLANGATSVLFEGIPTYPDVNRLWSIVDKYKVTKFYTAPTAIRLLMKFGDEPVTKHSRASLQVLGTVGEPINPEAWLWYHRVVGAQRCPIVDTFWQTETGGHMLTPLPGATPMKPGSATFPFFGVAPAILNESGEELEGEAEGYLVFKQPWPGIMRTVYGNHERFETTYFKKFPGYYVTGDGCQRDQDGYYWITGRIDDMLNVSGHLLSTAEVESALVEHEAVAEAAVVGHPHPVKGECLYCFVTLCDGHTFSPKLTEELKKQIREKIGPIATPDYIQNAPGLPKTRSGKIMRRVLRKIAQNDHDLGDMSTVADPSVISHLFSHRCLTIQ

`NCC(=O)Nc1ccc(-n2nc(C(F)(F)F)cc2-c2ccc3c(ccc4ccccc43)c2)cc1` [AR-12]: the IC50 (as a rule, the concentration that gives 50% inhibition) in experiment [1] was less than 100 µM. In addition, the Ki (in general, the equilibrium dissociation constant of an inhibitor or competing ligand from its target) in experiment [2] is roughly 2.7 µM.

Regarding `Nc1ncnc2c1ncn2[C@@H]1O[C@H](COP(=O)(O)OP(=O)(O)OP(=O)(O)O)[C@@H](O)[C@H]1O` [ATP], the Km in experiment [3] and in experiment [4] was 900 to 1000 µM throughout.

The values are drawn from publication PMC4828684 (ACS Infectious Diseases, 2016).
